The record followed here is patent US20250084063A1 (Incyte Corporation, priority 2023, published 2025).

The IC50 is the concentration needed to halve the response being measured.

Common to all, as to assay type: cell-based
The target of test [1] is T1, MRGPRX2 (Homo sapiens, UniProt Q96LB1).
T1 sequence (Q96LB1 1-330): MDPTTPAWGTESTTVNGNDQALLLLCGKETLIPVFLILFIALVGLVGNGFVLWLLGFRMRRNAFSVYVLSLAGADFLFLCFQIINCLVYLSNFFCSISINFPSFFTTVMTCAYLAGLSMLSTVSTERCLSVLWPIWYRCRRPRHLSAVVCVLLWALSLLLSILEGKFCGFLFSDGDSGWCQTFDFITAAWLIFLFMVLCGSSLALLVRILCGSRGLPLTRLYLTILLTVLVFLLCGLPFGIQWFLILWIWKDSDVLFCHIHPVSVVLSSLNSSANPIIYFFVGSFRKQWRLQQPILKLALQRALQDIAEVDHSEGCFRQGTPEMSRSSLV
In words: MRGPRX2 β-Arrestin assay. As to conditions: PathHunter CHO-K1 MRGPRX2 β-Arrestin cell line; agonist Cortistatin 14 0.25 μM. The arrangement: host or cells: PathHunter CHO-K1. An excerpt:
Example C: MRGPRX2 β-Arrestin Assay
This assay measures compound inhibition of β-Arrestin recruitment, which is part of the G protein-independent pathway that results from the ligand-activated GPCR phosphorylation by specific GPCR kinases. The PathHunter CHO-K1 MRPGRX2 B-Arrestin Cell line stably expressing ProLink tagged MRGPRX2 and Enzyme Acceptor Tagged B-Arrestin was purchased from Eurofins DiscoverX, (Fremont, CA).
The cells were maintained in culture medium from the Europhins DiscoverX Cell Culture Kit-107 which includes FBS, hygromycin B and G418. For the assay, the cells were harvested and were resuspended with Cell Plating Reagent 2 (Eurofins DiscoverX). Cells were added 10000 cells in 25 µL/well to a 384-well black cell culture plate (Greiner VWR, Radnor, PA) which contained 125 nL/well of compound at a selected serially diluted concentration range or DMSO. The plate was incubated at 37° C. with 5% CO2 for 1 h. 2 μL/well of agonist Cortistatin 14 was diluted in Protein Dilution Buffer, (Eurofins DiscoverX) for a final concentration of 0.25 μM, was added and the plate was incubated at 37° C. with 5% CO2 for 90 min. 14 μL/well of Detection Reagent Mix (PathHunter Detection Kit, Eurofins DiscoverX) was added to the plates and further incubated for 1 h in the dark. Plates were read on the PHERAstar microplate reader (BMG Labtech Cary, NC) measuring luminescence 0.1 to 1 second per well. Data was normalized using DMSO only wells and wells with high concentration of reference antagonist as controls. Compound IC50 curves were globally fitted with 3- or 4-parameter Hill equation in a Genedata Screener (Genedata Basel, Switzerland).

Test [2] has as its target T1, MRGPRX2. In words: MRGPRX2 FLIPR calcium mobilization assay. The arrangement: host or cells: CHO-K1. The conditions noted are these: CHO-K1 cells stably expressing human MRGPRX2; Ca2+ release, agonist Cortistatin-14 at EC80. The protocol:
Example A. MRGPRX2 FLIPR Calcium Mobilization Assay
Chinese hamster ovary (CHO-K1) cells stably expressing human MRGPRX2 were purchased from Genescript (Piscataway, NJ). The cells were maintained in culture medium (Ham's F-12K) containing 10% (v/v) FBS, 200 μg/mL Zeocin, 100 units/mL penicillin G and 100 μg/mL streptomycin (Life Technologies, Carlsbad, CA). For the assay, the cells were harvested and resuspended with culture medium without Zeocin before plating at 8000 cells per well in 20 μL in 384-well black clear bottom cell culture plates (VWR, Radnor, PA). After 24 h culture at 37° C. and 5% CO2, the cells were loaded with 20 μL/well of calcium dye (FLIPR Calcium 6 Assay Kit, Molecular Devices, San Jose, CA) diluted in loading buffer (1×Hank's Balanced Salt Solution (HBSS), 5 mM probenecid, 20 mM 4-(2-hydroxyethyl)-1-piperazineethanesulfonic acid (HEPES), pH 7.4, VWR, Radnor, PA) followed with 45 min incubation at 37° C. and 40 min at room temperature in the dark. Cells were then treated with the addition of 10 uL/well test compounds with a range of increasing concentrations diluted in the assay buffer (1×HBSS, 20 mM HEPES, pH 7.4, VWR, Radnor, PA) with FLIPR Penta (Molecular Devices. San Jose, CA) and incubated for 30 min. at room temperature. Ca^2+ release was measured with FLIPR Penta with 10 seconds basal fluorescence measurement, then 12.5 μL of 5× agonist Cortistatin-14 (Tocris, Minneapolis, MN) at final concentration corresponding to the EC80 were added followed with continued fluorescence signal monitoring for an additional 110 seconds. The base line adjusted (median of first 10s base line) max value of the Relative Fluorescence Unit (RFU) was plotted against compound concentrations. Wells with no compound were served as the positive controls, and wells with high concentration of reference antagonist were used as negative controls. IC50 curves were globally fitted with 3- or 4-parameter Hill equation in a Genedata Screener (Genedata Basel, Switzerland).

For test [3], the target named is T1, MRGPRX2. In words: MRGPRX2 IP1 HTRF assay. The arrangement: host or cells: CHO-K1. The conditions noted are these: CHO-K1 cells stably expressing human MRGPRX2; IP1 accumulation, agonist Cortistatin 14 1 μM.

The structures appear in SMILES notation.

As for `NS(=O)(=O)N1CC(CNc2cc(C(F)(F)F)nc3ccc(C(F)(F)F)cc23)(c2ccc(F)cc2)C1` [Example 1, 3-(((2,6-Bis(trifluoromethyl)quinolin-4-yl)amino)methyl)-3-(4 fluorophenyl)azetidine-1-sulfonamide], the IC50 on MRGPRX2 [1], on MRGPRX2 [2] and on MRGPRX2 [3] was 0.1 to 100 nM in each case.

As for `Cc1ccc2nc(C(F)(F)F)cc(NCC3(c4ccc(F)cc4)CN(S(N)(=O)=O)C3)c2c1` [Example 2, 3-(4-Fluorophenyl)-3-(((6-methyl-2-(trifluoromethyl)quinolin-4-yl)amino)methyl)azetidine-1-sulfonamide], the IC50 at MRGPRX2 [1], on MRGPRX2 [2] and at MRGPRX2 [3] was 0.1 to 100 nM each time.

Consider `NS(=O)(=O)N1CC(CNc2cc(C(F)(F)F)nc3ccc(Br)cc23)(c2ccc(F)cc2)C1` [Example 3, 3-(((6-Bromo-2-(trifluoromethyl)quinolin-4-yl)amino)methyl)-3-(4-fluorophenyl)azetidine-1-sulfonamide], for which the IC50 at MRGPRX2 [1], on MRGPRX2 [2] and at MRGPRX2 [3] was 0.1 to 100 nM each time.

`NS(=O)(=O)N1CC(CNc2cc(C(F)(F)C(F)(F)F)nc3ccc(Cl)cc23)(c2ccc(F)cc2)C1` [Example 4, 3-(((6-Chloro-2-(perfluoroethyl)quinolin-4-yl)amino)methyl)-3-(4-fluorophenyl)azetidine-1-sulfonamide]: the IC50 on MRGPRX2 [1], at MRGPRX2 [2] and on MRGPRX2 [3] was 0.1 to 100 nM throughout.

Turning to `NS(=O)(=O)N1CC(CNc2cc(C(F)F)nc3ccc(Cl)cc23)(c2ccc(F)cc2)C1` [Example 5, 3-(((6-Chloro-2-(difluoromethyl)quinolin-4-yl)amino)methyl)-3-(4-fluorophenyl)azetidine-1-sulfonamide], the 50% inhibitory concentration (IC50) at MRGPRX2 [1], at MRGPRX2 [2] and at MRGPRX2 [3] was 0.1 to 100 nM throughout.

Take `NC(=O)N1CC(CNc2cc(C(F)(F)F)nc3ccc(Br)cc23)(c2ccc(F)cn2)C1` [Example 6, 3-(((6-Bromo-2-(trifluoromethyl)quinolin-4-yl)amino)methyl)-3-(5-fluoropyridin-2-yl)azetidine-1-carboxamide]: the IC50 on MRGPRX2 [1], on MRGPRX2 [2] and on MRGPRX2 [3] was 0.1 to 100 nM in each case.

Take `N#CN=C(N)N1CC(CNc2cc(C(F)(F)F)nc3ccc(Cl)cc23)(c2ccc(F)cc2)C1` [Example 7, 3-(((6-Chloro-2-(trifluoromethyl)quinolin-4-yl)amino)methyl)-N′-cyano-3-(4-fluorophenyl)azetidine-1-carboximidamide]: the IC50 at MRGPRX2 [1], on MRGPRX2 [2] and at MRGPRX2 [3] was 0.1 to 100 nM each time.

Take `O=C1CC(CNc2cc(C(F)(F)F)nc3ccc(Cl)cc23)(c2ccccc2)CN1` (stereo not shown) [Example 8, 4-(((6-Chloro-2-(trifluoromethyl)quinolin-4-yl)amino)methyl)-4-phenylpyrrolidin-2-one]: the IC50 at MRGPRX2 [1], on MRGPRX2 [2] and at MRGPRX2 [3] was 0.1 to 100 nM throughout.

Consider `N#CN=C(N)N1CCC(CNc2cc(C(F)(F)F)nc3ccc(Cl)cc23)(c2ccccc2)CC1` [Example 9, 4-(((6-Chloro-2-(trifluoromethyl)quinolin-4-yl)amino)methyl)-N′-cyano-4-phenylpiperidine-1-carboximidamide], for which the IC50 on MRGPRX2 [1], on MRGPRX2 [2] and at MRGPRX2 [3] was 0.1 to 100 nM throughout.

Take `NS(=O)(=O)N1CC(CNc2cc(C(F)(F)F)nc3ccc(F)cc23)(n2cc(F)cn2)C1` [Example 10, 3-(4-Fluoro-1H-pyrazol-1-yl)-3-(((6-fluoro-2-(trifluoromethyl)quinolin-4-yl)amino)methyl)azetidine-1-sulfonamide]: the half-maximal inhibitory concentration (IC50) at MRGPRX2 [1], on MRGPRX2 [2] and at MRGPRX2 [3] was 0.1 to 100 nM throughout.

Consider `NS(=O)(=O)N1CCC(CNc2cc(C(F)(F)F)nc3ccc(F)cc23)(c2ccccc2)CC1` [Example 11, 4-(((6-Fluoro-2-(trifluoromethyl)quinolin-4-yl)amino)methyl)-4-phenylpiperidine-1-sulfonamide], for which the IC50 at MRGPRX2 [1], on MRGPRX2 [2] and on MRGPRX2 [3] was 0.1 to 100 nM throughout.

Regarding `NS(=O)(=O)N1CCC(CNc2cc(C(F)(F)F)nc3ccc(Cl)cc23)(c2ccccc2)CC1` [Example 12, 4-(((6-Chloro-2-(trifluoromethyl)quinolin-4-yl)amino)methyl)-4-phenylpiperidine-1-sulfonamide], the IC50 at MRGPRX2 [1], on MRGPRX2 [2] and at MRGPRX2 [3] was 0.1 to 100 nM each time.

For `CNC(=O)N1CCC(CNc2cc(C(F)(F)F)nc3ccc(Cl)cc23)(c2ccccc2)C1` (stereo not shown) [Example 14, 3-(((6-Chloro-2-(trifluoromethyl)quinolin-4-yl)amino)methyl)-N-methyl-3-phenylpyrrolidine-1-carboxamide], the IC50 on MRGPRX2 [1], on MRGPRX2 [2] and on MRGPRX2 [3] was 0.1 to 100 nM throughout.

For the molecule `FC(F)(F)c1cc(NCC2(c3ccccc3)CCOC2)c2cc(Cl)ccc2n1` (stereo not shown) [Example 16, 6-Chloro-N-((3-phenyltetrahydrofuran-3-yl)methyl)-2-(trifluoromethyl)quinolin-4-amine], the IC50 at MRGPRX2 [1], at MRGPRX2 [2] and on MRGPRX2 [3] was 0.1 to 100 nM each time.

Turning to `FC(F)(F)c1cc(NCC2(c3ccccc3)CCOCC2)c2cc(Cl)ccc2n1` [Example 17, 6-Chloro-N-((4-phenyltetrahydro-2H-pyran-4-yl)methyl)-2-(trifluoromethyl)quinolin-4-amine], the IC50 at MRGPRX2 [1], on MRGPRX2 [2] and on MRGPRX2 [3] was 0.1 to 100 nM in each case.

With `NS(=O)(=O)N1CC(CNc2cc(C(F)(F)F)nc3ccc(Cl)cc23)(n2ccc(F)n2)C1` [Example 18, 3-(((6-Chloro-2-(trifluoromethyl)quinolin-4-yl)amino)methyl)-3-(3-fluoro-1H-pyrazol-1-yl)azetidine-1-sulfonamide], the IC50 at MRGPRX2 [1], at MRGPRX2 [2] and on MRGPRX2 [3] was 0.1 to 100 nM in each case.

As to `Nc1nc(N2CCC(CNc3cc(C(F)(F)F)nc4ccc(Cl)cc34)(c3ccccc3)CC2)nn1CCN1CCOCC1` [Example 79, N-((1-(5-Amino-1-(2-morpholinoethyl)-1H-1,2,4-triazol-3-yl)-4-phenylpiperidin-4-yl)methyl)-6-chloro-2-(trifluoromethyl)quinolin-4-amine], the 50% inhibitory concentration (IC50) on MRGPRX2 [1] and on MRGPRX2 [2] was 0.1 to 100 nM in each case.

As for `NS(=O)(=O)N1CC(CNc2cc(C(F)(F)F)nc3ccc(Cl)cc23)(c2nc3cc(F)ccc3s2)C1` [Example 85, 3-(((6-Chloro-2-(trifluoromethyl)quinolin-4-yl)amino)methyl)-3-(5-fluorobenzo[d]thiazol-2-yl)azetidine-1-sulfonamide], the IC50 on MRGPRX2 [1] and at MRGPRX2 [2] was 0.1 to 100 nM throughout.
